These results are taken from ChEMBL document CHEMBL1130859, “Inhibitors of the bacterial cell wall biosynthesis enzyme MurD” (Bioorg Med Chem Lett, 1998).

For orientation: IC50 means the concentration that gives 50% inhibition. Low values mean higher potency, high ones lower potency.

Molecules are shown by their SMILES.

One assay can be described thus: Compound was tested for inhibition against UDP-N-acetylmuramoyl-L-alanyl-D-glutamate synthetase isolated from Escherichia coli.
As for `CC(=O)NC1C(OP(=O)(O)OP(=O)(O)OC[C@H]2OC(n3cc(I)c(=O)[nH]c3=O)[C@H](O)[C@@H]2O)OC(CO)C(O)C1O[C@H](C)C(=O)N[C@@H](C)P(=O)(O)CC(CCC(=O)O)C(=O)O` (some centres not stated) [17], the concentration for half-maximal inhibition (IC50) is 4 nM.

The next assay can be described thus: Compound was tested for inhibition against UDP-N-acetylmuramoyl-L-alanyl-D-glutamate synthetase. On the set-up: species or system Escherichia coli.
`CC(=O)NC1C(OP(=O)(O)OP(=O)(O)OC[C@H]2OC(n3ccc(=O)[nH]c3=O)[C@H](O)[C@@H]2O)OC(CO)C(O)C1O[C@H](C)C(=O)N[C@@H](C)P(=O)(O)CC(CCC(=O)O)C(=O)O` (some centres not stated) came in with an IC50 of less than 1 nM. In turn, `CC(=O)NC1C(OP(=O)(O)O)OC(CO)C(O)C1O[C@H](C)C(=O)N[C@@H](C)P(=O)(O)CC(CCC(=O)O)C(=O)O` (some centres not stated) registered an IC50 of 20 nM. In turn, `CC(=O)NC1C(O)OC(CO)C(O)C1O[C@H](C)C(=O)N[C@@H](C)P(=O)(O)CC(CCC(=O)O)C(=O)O` (some centres not stated) registered an IC50 of 782000 nM. On the same count and under the same terms, then `CC(=O)NC1C(OP(=O)(O)O)OC2COC(c3ccccc3)OC2C1O[C@H](C)C(=O)N[C@@H](C)P(=O)(O)CC(CCC(=O)O)C(=O)O` (some centres not stated), with 455 nM; and `CC(NC(=O)CCCCCOP(=O)(O)OP(=O)(O)OC[C@H]1O[C@@H](n2ccc(=O)[nH]c2=O)[C@H](O)[C@@H]1O)P(=O)(O)CC(CCC(=O)O)C(=O)O` (some centres not stated), with 680 nM. `CC(NC(=O)CCCCCOP(=O)(O)O)P(=O)(O)CC(CCC(=O)O)C(=O)O` (configuration not stated) returned an IC50 of 29000 nM.
